From patent publication US20100279969A1, “AZIDO PURINE NUCLEOSIDES FOR TREATMENT OF VIRAL INFECTIONS” (priority 2007, published 2010)

Key:
[1] = system: adenosine deaminase; assay type: in vitro ADME; details: 7 minutes with 0.002 units of enzyme; 50 μM, pH 7.4, 25° C.
Protocol: To determine the propensity for deamination of the APN nucleosides by adenosine deaminase, compounds were incubated with the commercially available purified enzyme, and the reaction was followed spectrophotometrically. Reaction conditions were 50 mM potassium phosphate, pH 7.4, with 50 μM APN nucleoside in 0.5 mL at 25° C. Reaction time was 7 minutes with 0.002 units of enzyme and 120 minutes with 0.2 units of enzyme. (The unit definition of adenosine deaminase is one unit will deaminate 1.0 μmol of adenosine to inosine per minute at pH 7.5 at 25° C.) Deoxyadenosine was the positive control which was 59% deaminated under the given conditions in 7 minutes with 0.002 units of enzyme. Deoxyguanosine was the negative control. Optical density was measured at 265 nm or 285 nm. The difference in optical density between the beginning and the end of the experiment was divided by the extinction coefficient then multiplied by the volume of the reaction to determine the number of mols of substrate transformed into product. Mols of product were divided by mols of substrate equivalent to a 100% complete reaction then multiplied by 100 to obtain percent deamination. The limit of detection was 0.001 optical density units.

[2] = system: HIV-1AZT7 (M41L/D67N/K70R/T215F/K219Q); experiment: Drug susceptibility assay against drug-resistant HIV, fold resistance; assay type: cell-based; details: EC50 for mutant HIV-1 divided by EC50 for WT HIV-1
Protocol: At 48 h post-infection, a cell lysis buffer and luminescent substrate (Gal-Screen; Tropix/Applied Biosystems) was added to each well, and relative light unit values were determined using a luminometer (ThermoLabSystems, Waltham, Mass.).
Drug susceptibility assays were performed using the single- and multiple-replication-cycle assays also described above.

[3] = system: HIV-1 RT containing TAMS; details: cited from earlier work
[4] = system: HepG2 cells; details: HepG2 cells incubated with 10 μM; cited from earlier work

SMILES: Nc1ncnc2c1ncn2[C@H]1C[C@H](O)[C@@H](CO)O1 [Deoxyadenosine]
- percent deamination [1]: 59%

SMILES: Cc1cn([C@H]2C[C@H](N=[N+]=[N-])[C@@H](CO)O2)c(=O)[nH]c1=O [AZT, 3′-azido-3′-deoxythymidine]
- fold resistance [2]: > 500 fold

SMILES: Cc1cn([C@H]2C[C@H](N=[N+]=[N-])[C@@H](COP(=O)(O)O)O2)c(=O)[nH]c1=O [AZT-MP]
- lower sensitivity of excision to inhibition by the next-correct dNTP than other NRTI analogs that lack a 3′-azido group [3]: > 50 fold

SMILES: O=c1[nH]c(=O)n([C@@H]2O[C@H](CO)[C@@H](O)[C@@H]2F)cc1I [fialuridine, 1,2′-deoxy-2′-fluoro-1-D-arabinofuranosly-5-iodo-uracil]
- mitochondrial morphology in electron micrographs [4]: enlarged mitochondria with morphological changes consistent with mitochondrial dysfunction
